Laboratory results: patent US20260053834A1, “COVALENT MODIFIERS OF AKT1 AND USES THEREOF” (Terremoto Biosciences, Inc., priority 2023, published 2026)
Read-outs that look alike come from different tables or passages of the source.

Key:
[1] = tested on: LAPC4 prostate cancer cells, which express the AKT1 E17K allele; assay: Antiproliferative effects in LAPC4 cells (CellTiter Glo, 72 h); type: cell-based; settings: read-out: LAPC4 proliferation IC50: GeoMean IC50
Experimental: Antiproliferative effects in LAPC4 cells. LAPC4 prostate cancer cells (Klein, K. A. et al. Nat Med 1997, 3, 402-408), which express the AKT1 E17K allele, were grown in IMDM media (Hyclone) supplemented with 12% FBS+1% P/S. To assess compound effects on growth, 1,000 cells/well were seeded in 384 well assay plates, incubated with compound dilutions dissolved in DMSO. After 72 h, intracellular ATP content was assessed with CellTiter Glo reagent (Promega) according to the manufacturer's instructions. IC50 values were calculated by fitting luminescence values to a log(inhibitor) vs. response Hill equation.

[2] = biological target: T1, AKT1 E17K (Homo sapiens, UniProt P31749, E17K); assay: Live cell target engagement by NanoBRET competitive probe displacement, AKT1 E17K; type: binding; settings: transfected HEK293 cells, 2 h at 37° C., read-out: AKT1 E17K IC50: GeoMean IC50
T1 construct: expressed in transfected cells; host or cells: HEK293
T1 sequence (P31749 whole entry E17K): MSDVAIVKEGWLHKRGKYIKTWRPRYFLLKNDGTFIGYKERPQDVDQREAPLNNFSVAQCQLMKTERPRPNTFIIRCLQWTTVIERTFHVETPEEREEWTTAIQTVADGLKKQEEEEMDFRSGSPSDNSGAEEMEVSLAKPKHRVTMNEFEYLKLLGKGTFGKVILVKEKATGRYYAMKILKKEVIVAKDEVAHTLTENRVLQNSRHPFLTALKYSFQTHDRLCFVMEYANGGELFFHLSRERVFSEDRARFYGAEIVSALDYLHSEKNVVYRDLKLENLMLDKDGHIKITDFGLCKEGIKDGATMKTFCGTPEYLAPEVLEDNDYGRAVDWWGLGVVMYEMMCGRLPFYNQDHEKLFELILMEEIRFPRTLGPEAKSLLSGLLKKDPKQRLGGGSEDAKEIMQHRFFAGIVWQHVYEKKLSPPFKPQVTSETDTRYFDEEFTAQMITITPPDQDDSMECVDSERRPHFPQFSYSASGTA
Experimental: (§1) Determining live cell AKT1 E17K, AKT1 WT, and AKT2 target engagement by NanoBRET competitive probe displacement. Live cell target engagement assays were performed as described (Vasta, J. D. et al. Cell Chem Biol 2018, 25(11), 206-214). Briefly, HEK293 cells were transfected with plasmids encoding kinase-NanoLuciferase fusion proteins overnight. Cells were then treated with serial dilutions of compound and an ˜EC50 concentration of fluorescently-tagged ATP-competitive tracer (Promega). After incubation for 2 h at 37° C., luciferase substrate and extracellular luciferase inhibitor were added to all wells, and luminescent intensity at 460 nm and 600 nm were measured on a multimode plate-reader. The ratio of E600/E460 was calculated to give the tracer engagement signal (BRET). IC50 values were calculated by fitting BRET values to a log(inhibitor) vs. response Hill equation.

[3] = biological target: T2, AKT1 WT (Homo sapiens, UniProt P31749); assay: Live cell target engagement by NanoBRET competitive probe displacement, AKT1 WT; type: binding; settings: transfected HEK293 cells, 2 h at 37° C., read-out: AKT1 WT IC50: GeoMean IC50
T2 construct: expressed in transfected cells; host or cells: HEK293
T2 sequence (P31749 whole entry): as the sequence (P31749 whole entry E17K) above, with K17E counted along it
Experimental: as §1

[4] = biological target: T3, AKT2 (Homo sapiens, UniProt P31751); assay: Live cell target engagement by NanoBRET competitive probe displacement, AKT2; type: binding; settings: transfected HEK293 cells, 2 h at 37° C., read-out: AKT2 IC50: GeoMean IC50
T3 construct: expressed in transfected cells; host or cells: HEK293
T3 sequence (P31751 whole entry): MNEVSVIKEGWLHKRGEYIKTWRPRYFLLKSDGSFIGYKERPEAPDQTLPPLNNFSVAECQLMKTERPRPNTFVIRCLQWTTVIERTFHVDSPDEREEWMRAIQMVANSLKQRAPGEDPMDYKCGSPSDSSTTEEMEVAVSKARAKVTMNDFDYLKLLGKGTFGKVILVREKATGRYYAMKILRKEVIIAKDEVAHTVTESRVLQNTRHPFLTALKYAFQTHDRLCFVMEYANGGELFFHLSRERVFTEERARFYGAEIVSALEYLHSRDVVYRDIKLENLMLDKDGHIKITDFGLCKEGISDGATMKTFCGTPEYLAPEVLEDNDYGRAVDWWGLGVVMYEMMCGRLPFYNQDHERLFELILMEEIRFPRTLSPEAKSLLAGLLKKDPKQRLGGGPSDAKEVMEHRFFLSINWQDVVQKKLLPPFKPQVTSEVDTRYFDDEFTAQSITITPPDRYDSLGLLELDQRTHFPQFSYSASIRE
Experimental: as §1

| SMILES | IC50 ([1]; Homo sapiens, LAPC4, 72 h) [nM] | IC50 [2] [nM] | IC50 [3] [nM] | IC50 [4] [nM] | IC50 [1] [nM] |
| --- | --- | --- | --- | --- | --- |
| Nc1ncccc1-c1nc2ccc(-n3cccn3)nc2n1-c1ccc2c(c1)[C@@H](O)C[C@@H]2NC(=O)c1ccc(O)c(C=O)c1 (single isomer, unassigned) [Example 99] | 100 to 2000 | 100 to 2000 | 100 to 2000 | 100 to 2000 |  |
| Nc1ncccc1-c1nc2ccc(-c3ccccc3)nc2n1-c1ccc2c(c1)CCC2NCCc1ccc(O)c(C=O)c1 (stereo not shown) [Example 2, 5-(2-((5-(2-(2-aminopyridin-3-yl)-5-phenyl-3H-imidazo[4,5-b]pyridin-3-yl)-2,3-dihydro-1H-inden-1-yl)amino)ethyl)-2-hydroxybenzaldehyde] |  | 100 to 2000 | ≥ 2000 | ≥ 2000 |  |
| Nc1ncccc1-c1nc2ccc(-c3ccccc3)nc2n1-c1ccc2c(c1)CC[C@H]2NC(=O)c1ccc(O)c(C=O)c1 [Example 7, N-[(1R)-5-[2-(2-aminopyridin-3-yl)-5-phenylimidazo[4,5-b]pyridin-3-yl]-2,3-dihydro-1H-inden-1-yl]-3-formyl-4-hydroxybenzamide] |  | 100 to 2000 | ≥ 2000 | ≥ 2000 |  |
| Nc1ncccc1-c1nc2ccc(-n3cccn3)nc2n1-c1ccc2c(c1)CC[C@@H]2NC(=O)c1cc(C=O)c(F)cc1F [Example 188, (S)—N-(5-(2-(2-aminopyridin-3-yl)-5-(1H-pyrazol-1-yl)-3H-imidazo[4,5-b]pyridin-3-yl)-2,3-dihydro-1H-inden-1-yl)-2,4-difluoro-5-formylbenzamide] |  | 10 to 100 | 10 to 100 | 100 to 2000 |  |
| Nc1ncccc1-c1nc2ccc(-n3cccn3)nc2n1-c1ccc2c(c1)CC[C@@H]2NC(=O)c1ccc(F)c(C=O)c1 [Example 191, (S)—N-(5-(2-(2-aminopyridin-3-yl)-5-(1H-pyrazol-1-yl)-3H-imidazo[4,5-b]pyridin-3-yl)-2,3-dihydro-1H-inden-1-yl)-4-fluoro-3-formylbenzamide] |  | 10 to 100 | 10 to 100 | 10 to 100 |  |
| Nc1ncccc1-c1nc2ccc(-n3cccn3)nc2n1-c1ccc2c(c1)CC[C@@H]2n1cnc2c(F)c(O)c(C=O)cc2c1=O [Example 243, 3-[(1S)-5-[2-(2-aminopyridin-3-yl)-5-(pyrazol-1-yl)imidazo[4,5-b]pyridin-3-yl]-2,3-dihydro-1H-inden-1-yl]-8-fluoro-7-hydroxy-4-oxoquinazoline-6-carbaldehyde] | 100 to 2000 |  |  |  |  |
| CS(=O)(=O)Nc1cc2ncn([C@H]3CCc4cc(-n5c(-c6cccnc6N)nc6ccc(-n7cccn7)nc65)ccc43)c(=O)c2cc1C=O [Example 244, N-{3-[(1S)-5-[2-(2-aminopyridin-3-yl)-5-(pyrazol-1-yl)imidazo[4,5-b]pyridin-3-yl]-2,3-dihydro-1H-inden-1-yl]-6-formyl-4-oxoquinazolin-7-yl}methanesulfonamide] | 100 to 2000 |  |  |  |  |
| Cc1nc2cc(O)c(C=O)cc2c(=O)n1[C@H]1CCc2cc(-n3c(-c4cccnc4N)nc4ccc(-n5cccn5)nc43)ccc21 [Example 249, 3-[(1S)-5-[2-(2-aminopyridin-3-yl)-5-(pyrazol-1-yl)imidazo[4,5-b]pyridin-3-yl]-2,3-dihydro-1H-inden-1-yl]-7-hydroxy-2-methyl-4-oxoquinazoline-6-carbaldehyde] | ≥ 2000 |  |  |  |  |
| Nc1ncccc1-c1nc2ccc(-n3cccn3)nc2n1-c1ccc2c(c1)CC(O)C2NC(=O)c1ccc(O)c(C=O)c1 (stereo not shown) [Example 251, N-(5-(2-(2-aminopyridin-3-yl)-5-(1H-pyrazol-1-yl)-3H-imidazo[4,5-b]pyridin-3-yl)-2-hydroxy-2,3-dihydro-1H-inden-1-yl)-3-formyl-4-hydroxybenzamide] |  | 10 to 100 | 100 to 2000 | 100 to 2000 |  |

Other lines, results leading:

| IC50 ([1]; Homo sapiens, LAPC4, 72 h) [nM] | IC50 [2] [nM] | IC50 [3] [nM] | IC50 [4] [nM] | IC50 [1] [nM] | SMILES |
| --- | --- | --- | --- | --- | --- |
| 100 to 2000 | 10 to 100 | 10 to 100 | 100 to 2000 |  | Nc1ncccc1-c1nc2ccc(-n3cccn3)nc2n1-c1ccc2c(c1)C(O)C[C@@H]2NC(=O)c1ccc(O)c(C=O)c1 (single isomer, unassigned) [Example 98] |
|  | 10 to 100 | 10 to 100 | 100 to 2000 | 10 to 100 | Nc1ncccc1-c1nc2ccc(-n3cccn3)nc2n1-c1ccc2c(c1)CC(F)[C@@H]2NC(=O)c1ccc(O)c(C=O)c1 (single isomer, unassigned) [Example 256, N-[(1R,2R*)-5-[2-(2-aminopyridin-3-yl)-5-(pyrazol-1-yl)imidazo[4,5-b]pyridin-3-yl]-2-fluoro-2,3-dihydro-1H-inden-1-yl]-3-formyl-4-hydroxybenzamide] |
|  | 10 to 100 | 10 to 100 | 100 to 2000 | 100 to 2000 | Nc1ncccc1-c1nc2ccc(-n3cccn3)nc2n1-c1ccc2c(c1)CC(F)[C@@H]2NC(=O)c1ccc(O)c(C=O)c1 (single isomer, unassigned) [Example 257, N-[(1R,2S*)-5-[2-(2-aminopyridin-3-yl)-5-(pyrazol-1-yl)imidazo[4,5-b]pyridin-3-yl]-2-fluoro-2,3-dihydro-1H-inden-1-yl]-3-formyl-4-hydroxybenzamide] |
| 10 to 100 | < 10 | 10 to 100 | 10 to 100 |  | Nc1ncccc1-c1nc2ccc(-n3cccn3)nc2n1-c1ccc2c(c1)CC(F)[C@@H]2NC(=O)c1cc(C=O)c(O)cc1F (single isomer, unassigned) [Example 258, N-((1R,2R*)-5-(2-(2-aminopyridin-3-yl)-5-(1H-pyrazol-1-yl)-3H-imidazo[4,5-b]pyridin-3-yl)-2-fluoro-2,3-dihydro-1H-inden-1-yl)-2-fluoro-5-formyl-4-hydroxybenzamide] |
|  | 10 to 100 | 10 to 100 | 100 to 2000 | 10 to 100 | Nc1ncccc1-c1nc2ccc(-n3cccn3)nc2n1-c1ccc2c(c1)CC(F)[C@@H]2NC(=O)c1cc(C=O)c(O)cc1F (single isomer, unassigned) [Example 259, N-((1R,2S*)-5-(2-(2-aminopyridin-3-yl)-5-(1H-pyrazol-1-yl)-3H-imidazo[4,5-b]pyridin-3-yl)-2-fluoro-2,3-dihydro-1H-inden-1-yl)-2-fluoro-5-formyl-4-hydroxybenzamide] |
|  | 10 to 100 | 100 to 2000 | 100 to 2000 |  | Nc1ncccc1-c1nc2ccc(-c3ccccc3)nc2n1-c1ccc2c(c1)CCC2NCCc1ccc(C=O)c(O)c1 (stereo not shown) [Example 1, 4-(2-((5-(2-(2-aminopyridin-3-yl)-5-phenyl-3H-imidazo[4,5-b]pyridin-3-yl)-2,3-dihydro-1H-inden-1-yl)amino)ethyl)-2-hydroxybenzaldehyde] |
|  | 10 to 100 | 100 to 2000 | ≥ 2000 |  | Nc1ncccc1-c1nc2ccc(-c3ccccc3)nc2n1-c1ccc2c(c1)CC[C@H]2NCCc1ccc(C=O)c(O)c1 [Example 3, 4-(2-{[(1R)-5-[2-(2-aminopyridin-3-yl)-5-phenylimidazo[4,5-b]pyridin-3-yl]-2,3-dihydro-1H-inden-1-yl]amino}ethyl)-2-hydroxybenzaldehyde] |
|  | 10 to 100 | 100 to 2000 | 100 to 2000 |  | Nc1ncccc1-c1nc2ccc(-c3ccccc3)nc2n1-c1ccc2c(c1)CC[C@@H]2NCCc1ccc(C=O)c(O)c1 [Example 4, 4-(2-{[(1S)-5-[2-(2-aminopyridin-3-yl)-5-phenylimidazo[4,5-b]pyridin-3-yl]-2,3-dihydro-1H-inden-1-yl]amino}ethyl)-2-hydroxybenzaldehyde] |
| 10 to 100 | 10 to 100 | 10 to 100 | 10 to 100 |  | Nc1ncccc1-c1nc2ccc(-c3ccccc3)nc2n1-c1ccc2c(c1)CC[C@@H]2NC(=O)c1ccc(O)c(C=O)c1 [Example 5, (S)—N-(5-(2-(2-aminopyridin-3-yl)-5-phenyl-3H-imidazo[4,5-b]pyridin-3-yl)-2,3-dihydro-1H-inden-1-yl)-3-formyl-4-hydroxybenzamide] |
|  | 10 to 100 | 10 to 100 | 100 to 2000 |  | Nc1ncccc1-c1nc2ccc(-c3ccccc3)nc2n1-c1ccc2c(c1)CCC2NC(=O)Cc1ccc(C=O)c(O)c1 (stereo not shown) [Example 6, N-(5-(2-(2-aminopyridin-3-yl)-5-phenyl-3H-imidazo[4,5-b]pyridin-3-yl)-2,3-dihydro-1H-inden-1-yl)-2-(4-formyl-3-hydroxyphenyl)acetamide] |
|  | 10 to 100 | 10 to 100 | 100 to 2000 |  | Nc1ncccc1-c1nc2ccc(-c3ccccc3)nc2n1-c1ccc2c(c1)CC[C@@H]2NC(=O)Cc1ccc(C=O)c(O)c1Cl [Example 9, N-[(1S)-5-[2-(2-aminopyridin-3-yl)-5-phenylimidazo[4,5-b]pyridin-3-yl]-2,3-dihydro-1H-inden-1-yl]-2-(2-chloro-4-formyl-3-hydroxyphenyl)acetamide] |
